Consider two compounds from doi:10.1101/2020.05.05.079848v2 (biorxiv, 2020).

Structures are written as SMILES.

Experiment [1] concerns the target SARS-CoV-2 M^pro-N (N-terminal domain with the catalytic core) (Severe acute respiratory syndrome coronavirus 2, UniProt P0DTD1). Format: binding. The conditions noted are these: catalytic pocket, probably more than one site.
The target in experiment [2] is SARS-CoV-2 M^pro (main protease, 3CL^pro), full-length (Severe acute respiratory syndrome coronavirus 2, UniProt P0DTD1). The experiment in a line: fluorescent peptide cleavage assay, two doses. The format is biochemical. The conditions noted are these: unreliable; estimated from two doses; limited by low aqueous solubility.

For `O=C(O)c1cccnc1` [niacin], the “1H-15N HSQC chemical shift perturbation” value in experiment [1] is “niacin perturbs H41, G143, N51, and V186”.

Regarding `CSc1nc2cc(Cl)c(Oc3cccc(Cl)c3Cl)cc2[nH]1` [triclabendazole], the IC50 in experiment [2] is listed as ~ 70 μM.
